The results in this text go back to US11559528B2, “BACE1 inhibition for the treatment of cancer” (The Cleveland Clinic Foundation, priority 2019, dated 2023).

One assay has as its system GSCs (T387 and T4121). Briefly: Immunoblot of apoptotic markers in glioma stem cells. In kind it is cell-based, human. The following applies: MK-8931 50 μg/mL, different times. The protocol: (§1) FIG. 16, panels A-E. MK-8931 Treatment Had Little Effect on Glioma Stem Cells. (A and B) Tumorsphere formation assay to examine the effect of MK-8931 treatment on glioma stem cells (GSCs). Representative images (A) of tumorsphere derived from T4121 GSCs treated with MK-8931 (50 μg/mL) or the vehicle control. Quantifications (B) show the number and size of tumorsphere derived from T4121 GSCs treated with MK-8931 (50 μg/mL) or the control. Data are shown as mean±SEM. NS (not significant)≥0.05, Student's t-test. […] GAPDH was blotted as loading control. (D) Immunoblot analysis of the apoptotic markers cleaved-PARP and cleaved caspase-3 in GSCs (T387 and T4121) treated with MK-8931 (50 μg/mL), etoposide (Etop, 1 μM), or the vehicle control for different time as indicated. GAPDH was blotted as loading control. […] Ctl: Control; Etop: Etoposide. (E) Cell viability assay to examine the effect of MK-8931 treatment on proliferation of glioma stem cells. […] Data are shown as mean±SEM. NS (not significant)≥0.05, Student's t-test.
Background: Immunoblotting shows a protein as a band on a membrane.

Assay [1] deals with GBM xenografts derived from T4121 GSCs. Briefly: Intracranial GBM xenografts from T4121 glioma stem cells. In kind it is in vivo, mouse. The text has this: FIG. 4, panels A-F. BACE1 Inhibition by MK-8931 Converts M2 TAMs into M1 Macrophages to Phagocytize Glioma Cells in GBM Xenografts. (A and B) Density analysis of M2 TAMs by immunofluorescent staining of the M2 TAM marker (CD163 or FIZZ1) and the total TAM marker IBA1 and in GBM xenografts treated with MK-8931 or vehicle control. GBM xenografts were established by implantation of glioma stem cells (T4121) through intracranial injection. […] Representative immunofluorescent images (A) showing M2 TAMs (CD163^+ or FIZZ1^+, in red) and total TAMs (IBA1^+, in green) in the MK-8931-treated or control GBM xenografts. […] (C and D) Density analysis of M1 TAMs by immunofluorescent staining of the M TAM marker (HLA-DR or CD11c) and the total TAM marker IBA1 and in GBM xenografts treated with MK-8931 or vehicle control. […] Representative immunofluorescent images (C) showing M1 TAMs (HLA-DR^+ or CD11c^+, in red) and total TAMs (IBA1^+, in green) in the MK-8931-treated or control GBM xenografts. […] (E and F) In vivo phagocytosis of TAMs against human glioma cells in the MK-8931-treated or control GBM xenografts. […] Representative images (E) showing in vivo TAM phagocytosis as inclusion bodies of glioma cells (TRA-1-85^+, in red) with TAMs (IBA1, in green) in the MK-8931 treated GBM xenografts but not in the control tumors. […] Scale bar represents 30 μM. Ctl: Control; MK: MK-8931.

The test system of assay [2] is bone marrow-derived macrophages (BMDMs). Description: Phagocytosis assay, bone marrow-derived macrophages against glioma cells. In kind it is cell-based, mouse. The following applies: MK-8931 50 μg/mL two days; T4121; p<0.001.
Assay [3] has as its system GBM xenografts derived from T4121 GSCs. Description: Intracranial GBM xenografts from T4121 glioma stem cells. The class given is in vivo, mouse. The source holds these as a separate data set.
A further assay concerns STAT3 (pSTAT3-Y705). Description: Immunoblot of STAT3 activating phosphorylation in U937-derived M2 macrophages. In kind it is cell-based, human. The following applies: MK-8931 50 μg/mL three days. The text has this: FIG. 7, panels A-G. BACE1 Maintains M2 Macrophages through STAT3 Activation (A) Immunoblot analyses of STAT3 and STAT6 activation (pSTAT3-Y705 and pSTAT6-Y641) in U937-derived M2 macrophages affected by BACE1 knockdown. […] (B) Immunoblot analysis of STAT3 and STAT6 activation (pSTAT3-Y705 and pSTAT6-Y641) in U937-derived M2 macrophages in response to MK-8931 treatment. […] (C-E) In vivo analysis of STAT3 activating phosphorylation in TAMs by double immunofluorescent staining of IBA1 with pSTAT3-Y705 in GBM xenografts treated with MK-8931 or vehicle control. GBM xenografts were established by implantation of glioma stem cells (T4121) through intracranial injection. […] Representative images (C) showing the fluorescent staining of IBA1 (in green) and the pSTAT3 (in red) in MK-8931-treated or control GBM xenografts. […] Scale bar represents 3 μM. Ctl: Control. MK: MK-8931. […] Ectopic expression of STAT3-C attenuated the M2 to M1 switch caused by BACE1 knockdown.

The next assay concerns T4121 GSCs. Briefly: Tumorsphere formation assay. The following applies: MK-8931 50 μg/mL. The class given is cell-based, human. The protocol: as §1
Tumorsphere formation assay was performed as described in our previous study (Shi et al., 2018). Glioma cells (1000 cells) were plated on the one well of a 96-well plate and maintained in the stem cell medium. […] The sizes and numbers of the tumor-sphere in the control and MK-8931 groups were furthered analyzed with ImageJ.

Where [4] appears, read: 30 mg/kg once daily oral gavage two weeks.
The mark [5] stands for this setting: 30 mg/kg once daily oral gavage two weeks, p<0.001.

For the molecule `CN1C(N)=N[C@](C)(c2cc(NC(=O)c3ccc(F)cn3)ccc2F)CS1(=O)=O` [MK-8931], the “apoptotic markers cleaved-PARP and cleaved caspase-3” value with GSCs (T387 and T4121) is reported as “did not induce apoptosis in GSCs in vitro”. For the same molecule, in assay [1] (setting [4]), the “IBA1+/pSTAT3+ double positive cells (TAMs)” value was “significantly reduced STAT3 activating phosphorylation in TAMs” and the “pSTAT3+ cells in xenografts” value was “significantly reduced STAT3 activating phosphorylation in GBM xenografts”. In assay [1] (setting [5]), the “density of M1 TAMs (HLA-DR+/IBA1+ or CD11c+/IBA1+)” value is listed as “significantly increased density of M1 TAMs” and the “density of M2 TAMs (CD163+/IBA1+ or FIZZ1+/IBA1+)” value is “significantly reduced density of M2 TAMs”. In assay [1] (30 mg/kg once daily oral gavage, p<0.01), the “in vivo TAM phagocytosis (inclusion bodies of TRA-1-85+ glioma cells with IBA1+ TAMs)” value was “promoted TAM phagocytosis”. Besides, the “phagocytosis of BMDMs against human glioma cells” value in assay [2] is reported as “significantly promoted phagocytosis of BMDMs”. Besides, in assay [3] (setting [5]), the “IL1β expression (IHC intensity)” value is “significantly induced IL1β expression”, the “IL10 expression (IHC intensity)” value is reported as “significantly reduced IL10 expression”, the “TGF-β expression (IHC intensity)” value is on record as “significantly reduced TGF-β expression” and the “TNFα expression (IHC intensity)” value is “significantly induced TNFα expression”. The “tumor growth (mean bioluminescence)” value in assay [3] (30 mg/kg/daily oral, Days 7, 14, and 21) is “significantly inhibited tumor growth of GBM xenografts”. The “survival (Kaplan-Meier)” value in assay [3] (30 mg/kg/daily oral, log-rank p<0.01) is recorded as “significantly extended the survival of mice bearing the GBM tumors”. Moreover, in assay [3] (30 mg/kg/daily oral, p<0.001), the “apoptosis (cleaved caspase-3+ cells)” value is listed as “significantly increased apoptosis”. Further, in assay [3] (30 mg/kg/daily oral, p<0.01), the “GSC population (SOX2+ cells)” value is recorded as “significantly reduced GSCs”, the “proliferative cells (Ki-67+)” value was “significantly reduced proliferative cells” and the “vessel density (CD31)” value is listed as “significantly reduced vessel density”. Further, the “activating phosphorylation of STAT3 (pSTAT3-Y705)” value with STAT3 (pSTAT3-Y705) is on record as “significantly down-regulated”. Also, in the assay on T4121 GSCs, the “number and size of tumorspheres” value was “did not affect GSC sphere formation”.
